Numbered stars: 1 amine (or outer) side, 2 acyl side, 3 side chain; on linkers, the order of the positions; unused ones are H or OH. Square brackets hold non-standard residues; d marks the D form. Peptide text beside a SMILES is read from it. ξ: configuration not given here. ξ(4-Aminopyrrolidine-3-CO) = O=C(C1CNCC1N[*:1])[*:2]; X3 = O=C(C1CCCC1N[*:1])[*:2]; β3hK = NCCCC[C@H](N)CC(=O)O; βAla = NCCC(=O)O
Experiments:
[1] = test system: dopaminergic neurons (TH+/Nissl+) in the SN; experiment: Parkinson's disease (MPTP) model, adoptive transfer of splenocytes from drug-treated donors; type: in vivo; settings: MPTP mice; donors 15 ug/day/5 days; FIG. 5
Experimental: Parkinson's Disease (PD) Model (not prophetic): Male C57/BL6 mice, 8-12 w old, housed in the IACUC approved housing were administered an analog described herein as well as a pharmaceutically acceptable carrier for five days at a dose between (0.1 nM and 100 nM). Thereafter, SPC and Tregs from the mice are harvested and then transferred to another set of MPTP intoxicated mice using the following protocol.
Immediately following the final dose, mice were sacrificed, and single-cell suspensions were prepared from inguinal lymph nodes and spleens. […] As determined by flow cytometric analysis, populations of Tregs and Teffs were consistently […] using this method (12). […]
Mice were postmortem transcardially perfused with PBS, followed by 4% para-formaldehyde (Sigma-Aldrich). […] Fluorojade C (FJ-C) staining (Millipore, Billerica, Mass.) was performed on adjacent sections, according to the manufacturer's protocol, to assess de-generating neurons and was quantified using ImageJ. Overall, dopaminergic neuron survival was assessed 7 d following MPTP intoxication and resolution of cell death processes with polyclonal Abs to mouse tyrosine hydroxylase (TH; 1:1000; EMD Chemicals/Calbiochem, San Diego, Calif.) and were counterstained for Nissl substance by thionin staining. […] Quantitation of striatal TH (1:500; EMD Chemicals/Calbiochem, Gibbstown, N.J.) was performed by densitometric analysis. […]

[2] = test system: anti-CD3 stimulated naïve CD4+CD25− T cells; experiment: Inhibition assay of suppressive function of Treg from treated donor mice; type: cell-based; settings: compared to PBS Treg populations; 1:1 Treg to responder ratio; donors injected daily/5 days/i.p.
Experimental: Immediately following the final dose, mice were sacrificed, and single-cell suspensions were prepared from inguinal lymph nodes and spleens. CD4+ T cell populations from spleens and lymph nodes were enriched by negative selection with CD4-enrichment columns (R&D Systems, Minneapolis, Minn.), followed by CD25-PE positive selection with AutoMACS (Miltenyi Biotec, Auburn, Calif.). As determined by flow cytometric analysis, populations of Tregs and Teffs were consistently […] using this method (12). T cells were cultured in complete RPMI 1640 (RPMI 1640 [Invitrogen, Carlsbad, Calif.] supplemented with 10% FBS, 2 mM L-gluta-mine, 25 mM HEPES, 1 mM sodium pyruvate, […] nonessential amino acids, […] 2-ME, 100 U/ml penicillin, and […] streptomycin [Mediatech, Manassas, Va.]) in the presence of anti-CD3 (145-2C11; BD Pharmingen, San Diego, Calif.), 4YSyn, or N-4YSyn. […]
To assess whether VIP, LBT-V101 (SEQ ID NO: 22), LBT-V218 (SEQ ID NO: 18) and PBS treated splenocytes (SPC) suppress effector T cell proliferative responses, we evaluated SPC co-cultures from VIP-treated donors for their proliferative capacity in the presence of either anti-CD3. […] To test this hypothesis, we evaluated CD4+CD25+CD62Llow Treg isolated from naïve and VIP-treated mice for their capacity to inhibit CD3-mediated proliferation of CD4+CD25− naïve T cells. […]

protease = experiment: In vitro protease stability assay; type: in vitro ADME; settings: FIG. 1; compared to Ro 25-1553 (one lactam bridge)
Experimental: In Vitro Stability Assay: Stock solutions of the both the naturally occurring peptides as well as peptide analogs are prepared at a concentration of 250 μM (based on UV absorbance) in a 2% DMSO solution of appropriate buffering conditions. Standard solution of proteinase K in addition to other common animal proteases (i.e. Cathepsins, Trypsins, dipeptidyl peptidase IV and chymotrypsin) were prepared at the following concentrations in appropriate buffers separately: Protease K: 250 μg/ml, Chymotrypsin 25 μg/mL and DPP-IV 40 units/ml. For a Protease K assay, the following recipe was followed: 1 μL enzyme was added to 5 μL peptide analog in 44 μL PBS. […] 50 μL of the resulting quenched reaction are then injected onto an analytical reverse phase HPLC, and the amount of starting peptide present quantified by integration of the appropriate chromatogram peak via absorbance at either 220 or 280 nm. […] Half-lives are determined by fitting time dependent peptide concentration to an exponential decay using GraphPad Prism. Samples for some time points will be analyzed by mass spectrometery, and the products observed are used to identify amide bonds cleaved in the course of the reaction. The relative stability enhancement is determined through the comparison of the various analogs with its naturally occurring peptide counterpart. […]

Compound	neuroprotection after adoptive transfer of splenocytes from drug-treated donors [1]	suppressive capacity of Treg on T cell proliferation [2]	in-vitro protease stability (protease)
HSDAVFTDNYTRLRKQMAVKKYLNSILN [VIP]	neuroprotective	enhanced suppressive capacity	
CC(=O)N[C@@H](Cc1c[nH]cn1)C(=O)NC1CCCC1C(=O)N[C@@H](CC(=O)O)C(=O)N[C@@H](C)C(=O)NC1CCCC1C(=O)N[C@@H](Cc1ccccc1)C(=O)N[C@H](C(=O)N[C@@H](CCC(=O)O)C(=O)N[C@@H](CC(N)=O)C(=O)N[C@@H](Cc1ccc(O)cc1)C(=O)N[C@H](C(=O)N[C@@H](CCCCN)C(=O)N[C@@H](CC(C)C)C(=O)N[C@@H](CCCNC(=N)N)C(=O)N[C@@H](CCCCN)C(=O)N[C@@H](CCC(N)=O)C(=O)N[C@@H](CC(C)C)C(=O)N[C@@H](C)C(=O)N[C@@H](C)C(=O)NC1CNCC1C(=O)N[C@@H](CCCCN)C(=O)N[C@@H](Cc1ccc(O)cc1)C(=O)NC1CCCC1C(=O)N[C@@H](CC(N)=O)C(=O)N[C@@H](CC(=O)O)C(=O)N[C@@H](CC(C)C)C(=O)N[C@@H](CCCCN)CC(=O)N[C@@H](CCCCN)C(=O)NCC(=O)NCCC(=O)N[C@H](C(N)=O)[C@@H](C)O)[C@@H](C)O)[C@@H](C)O (stereo partly drawn) [LBT-V208, Ac-HxDAxFTENYTKLRKQLAAzKYxNDLkKGgT] (Ac-H[X3]DA[X3]FTENYTKLRKQLAA[ξ(4-Aminopyrrolidine-3-CO)]KY[X3]NDL[β3hK]KG[βAla]T-NH2)			stability is greater

Reference: patent publication US11278595B2, “Peptides comprising non-natural amino acids and methods of making and using the same” (Longevity Biotech, Inc., priority 2013, dated 2022)
